Results published in US20230265151A1, “GIP/GLP1 CO-AGONIST COMPOUNDS” (priority 2020, published 2023).
Read-outs that look alike come from different tables or passages of the source. *1 amine or outer side, *2 acyl side, *3 side chain or, on linkers, in order; H or OH if unused. Where a SMILES comes first, the peptide text is derived from it. Side-chain parts run from the residue outwards. [ ]: non-standard residue; d: D form. The star is where a group is joined. αMePhe(2-F) = C[C@](N)(Cc1ccccc1F)C(=O)O; γGlu = O=C(O)[C@H](CCC(=O)[*:2])N[*:1]; αMeY = C[C@](N)(Cc1ccc(O)cc1)C(=O)O; αMeF = C[C@](N)(Cc1ccccc1)C(=O)O; αMeL = CC(C)C[C@](C)(N)C(=O)O; Lauroyl = CCCCCCCCCCCC(=O)*; Orn = NCCC[C@H](N)C(=O)O; AEEA = NCCOCCOCC(=O)O; Aib = CC(C)(N)C(=O)O

What was measured:
hGLP-1R = hGLP-1R (Homo sapiens, UniProt P43220); experiment: Functional cAMP formation (HTRF) in HEK-293 clonal cells expressing hGLP-1R, 0.1% bovine casein, without or with 1.0% human serum albumin; type: cell-based; design: expressed in transfected cells; settings: for Emax: percent of maximal response to GLP-1(7-36)NH2
hGLP-1R, sequence (P43220 24-463): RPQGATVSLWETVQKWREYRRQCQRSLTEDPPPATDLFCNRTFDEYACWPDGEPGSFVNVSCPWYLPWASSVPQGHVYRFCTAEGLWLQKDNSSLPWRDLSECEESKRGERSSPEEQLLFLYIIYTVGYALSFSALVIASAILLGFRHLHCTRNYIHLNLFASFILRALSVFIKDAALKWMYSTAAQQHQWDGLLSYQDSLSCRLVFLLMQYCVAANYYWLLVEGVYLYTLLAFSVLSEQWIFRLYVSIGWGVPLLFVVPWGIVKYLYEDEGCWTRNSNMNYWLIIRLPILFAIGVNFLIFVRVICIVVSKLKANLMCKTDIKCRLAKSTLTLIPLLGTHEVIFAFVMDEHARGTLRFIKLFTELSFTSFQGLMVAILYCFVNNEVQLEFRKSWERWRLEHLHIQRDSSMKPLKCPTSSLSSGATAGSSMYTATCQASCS
Method in brief: (§1)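 Readings of the HTRF 665/620 nm ratio, which falls as cAMP rises, were converted to nM cAMP using a standard curve after 30 min peptide exposure at 37° C.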

hGCGR = target: T1, hGCGR (Homo sapiens, UniProt P47871); experiment: Functional cAMP formation (HTRF) in HEK-293 clonal cells expressing hGCGR, 0.1% bovine casein, without or with 1.0% human serum albumin; type: cell-based
T1 construct: expressed in transfected cells
T1 sequence (P47871 26-477): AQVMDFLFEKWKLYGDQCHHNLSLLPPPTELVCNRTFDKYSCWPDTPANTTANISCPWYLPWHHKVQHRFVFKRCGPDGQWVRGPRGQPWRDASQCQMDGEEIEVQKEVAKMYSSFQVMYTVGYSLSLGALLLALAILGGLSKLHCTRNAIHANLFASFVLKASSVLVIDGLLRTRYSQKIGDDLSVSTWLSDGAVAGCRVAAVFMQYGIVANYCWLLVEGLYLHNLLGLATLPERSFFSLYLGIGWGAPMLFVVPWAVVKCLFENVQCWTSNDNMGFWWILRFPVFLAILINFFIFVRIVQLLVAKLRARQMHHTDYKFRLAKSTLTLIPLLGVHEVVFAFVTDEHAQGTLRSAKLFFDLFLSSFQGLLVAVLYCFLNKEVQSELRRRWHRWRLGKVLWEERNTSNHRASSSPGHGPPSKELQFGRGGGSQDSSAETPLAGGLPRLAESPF
Method in brief: as §1

[1] = target: T2, human GLP-1 receptor (hGLP-1R) (Homo sapiens, UniProt P43220); experiment: [125I]-GLP-1 binding, SPA with membranes of HEK293 cells expressing hGLP-1R
T2 construct: expressed in transfected cells; crude membranes
T2 sequence (P43220 24-463): as the sequence (P43220 24-463) above

[2] = target: T3, human GIP receptor (hGIPR) (Homo sapiens, UniProt P48546); experiment: [125I]-GIP binding, SPA with membranes of CHO cells expressing hGIPR
T3 construct: expressed in transfected cells; crude membranes
T3 sequence (P48546 22-466): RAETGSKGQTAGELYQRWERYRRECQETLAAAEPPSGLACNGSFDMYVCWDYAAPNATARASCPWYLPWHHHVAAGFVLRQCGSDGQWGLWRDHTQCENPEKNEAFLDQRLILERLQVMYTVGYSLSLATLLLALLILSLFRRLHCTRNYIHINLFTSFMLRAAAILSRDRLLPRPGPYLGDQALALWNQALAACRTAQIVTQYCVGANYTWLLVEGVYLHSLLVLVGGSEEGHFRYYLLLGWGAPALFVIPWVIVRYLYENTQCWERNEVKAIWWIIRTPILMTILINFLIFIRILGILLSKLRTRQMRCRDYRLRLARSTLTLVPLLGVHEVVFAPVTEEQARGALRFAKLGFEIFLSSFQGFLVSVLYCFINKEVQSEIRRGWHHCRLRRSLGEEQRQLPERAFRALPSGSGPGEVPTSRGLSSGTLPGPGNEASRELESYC

hGIPR = target: T4, hGIPR (Homo sapiens, UniProt P48546); experiment: Functional cAMP formation (HTRF) in HEK-293 clonal cells expressing hGIPR, 0.1% bovine casein, without or with 1.0% human serum albumin; type: cell-based; settings: 37° C.; for Emax: percent of maximal response to GIP(1-42)NH2, read-out: hGIPR Emax, % ± SEM; for EC50: cAMP, 0.1% bovine casein (no human serum albumin), geometric mean
T4 construct: expressed in transfected cells
T4 sequence (P48546 22-466): T3 sequence (P48546 22-466)
Method in brief: as §1

[3] = cAMP, 37° C., 0.1% bovine casein (no human serum albumin), geometric mean, read-out: hGLP-1R EC50, nM (SEM, n)
[4] = cAMP, 37° C., 0.1% bovine casein (no human serum albumin), geometric mean, read-out: hGCGR EC50, nM (SEM, n)
[5] = human GLP-1R, geometric mean (SEM, n), read-out: Binding Affinity Ki, nM (SEM, n) hGLP-1R
[6] = human GIPR, geometric mean (SEM, n), read-out: Binding Affinity Ki, nM (SEM, n) hGIPR
[7] = read-out: hGIPR EC50, nM (SEM, n)
[8] = 0.1% bovine casein and 1.0% human serum albumin, 37° C., geometric mean, read-out: hGCGR EC50, nM (SEM, n)
[9] = HEK293, 0.1% bovine casein and 1.0% human serum albumin

| SMILES | EC50 (hGLP-1R; [3]) [nM] | EC50 (hGCGR; [4]) [nM] | Ki [1, 5] [nM] | Ki [2, 6] [nM] | EC50 (hGIPR; [7]) [nM] | EC50 (hGCGR; [8]) [nM] | Emax (hGIPR; [9]) [%] | further results |
| --- | --- | --- | --- | --- | --- | --- | --- | --- |
| CCCCCCCCCCCC(=O)N[C@@H](CCC(=O)NCCOCCOCC(=O)NCCOCCOCC(=O)NCCOCCOCC(=O)NCCCC[C@H](NC(=O)[C@H](CCCN)NC(=O)[C@H](CC(=O)O)NC(=O)[C@H](CC(C)C)NC(=O)[C@](C)(CC(C)C)NC(=O)[C@@H](NC(=O)C(C)(C)NC(=O)[C@H](CCCCNC(=O)COCCOCCNC(=O)COCCOCCNC(=O)COCCOCCNC(=O)CC[C@H](NC(=O)CCCCCCCCCCC)C(=O)O)NC(=O)[C@H](CC(=O)O)NC(=O)[C@H](CO)NC(=O)[C@@H](NC(=O)[C@](C)(Cc1ccccc1F)NC(=O)[C@@H](NC(=O)CNC(=O)[C@H](CCC(=O)O)NC(=O)C(C)(C)NC(=O)[C@@H](N)Cc1ccc(O)cc1)[C@@H](C)O)[C@@H](C)O)[C@@H](C)CC)C(=O)N[C@@H](C)C(=O)N[C@@H](CCC(N)=O)C(=O)NC(C)(C)C(=O)N[C@@H](CCCN)C(=O)N[C@@H](Cc1ccccc1)C(=O)N[C@H](C(=O)N[C@H](CCC(=O)O)C(=O)N[C@@](C)(Cc1ccc(O)cc1)C(=O)N[C@@H](CC(C)C)C(=O)N[C@H](C(=O)N[C@@H](CCC(=O)O)C(=O)NCC(=O)NCC(=O)N1CCC[C@H]1C(=O)N[C@@H](CO)C(=O)N[C@@H](CO)C(=O)NCC(=O)N[C@@H](C)C(=O)N1CCC[C@H]1C(=O)N1CCC[C@H]1C(=O)N1CCC[C@H]1C(=O)N[C@@H](CO)C(N)=O)[C@@H](C)CC)[C@@H](C)CC)C(=O)O [Example 432] | 0.0549 | > 9950 | 0.134 | 0.0134 | 0.00602 | – | – | EC50 (hGLP-1R; cAMP, 37° C., 0.1% bovine casein and 1.0% human serum albumin, geometric mean (SEM, n), read-out: hGLP-1R EC50, nM (SEM, n)): 1.28 nM; EC50 (hGCGR; cAMP, 37° C., 0.1% bovine casein and 1.0% human serum albumin, geometric mean (SEM, n), read-out: hGCGR EC50, nM (SEM, n)): > 9950 nM; Emax (hGIPR; HEK293, cAMP, 0.1% bovine casein and 1.0% human serum albumin): 96.7% |
| CCCCCCCCCCCCCCCC(=O)N[C@@H](CCC(=O)NCCOCCOCC(=O)NCCOCCOCC(=O)NCCCC[C@H](NC(=O)[C@H](CCCN)NC(=O)[C@H](CC(=O)O)NC(=O)[C@H](CC(C)C)NC(=O)[C@](C)(CC(C)C)NC(=O)[C@@H](NC(=O)[C@H](CO)NC(=O)[C@H](Cc1ccncc1)NC(=O)[C@H](CC(=O)O)NC(=O)[C@H](CO)NC(=O)[C@@H](NC(=O)[C@](C)(Cc1ccccc1F)NC(=O)[C@@H](NC(=O)CNC(=O)[C@H](CCC(=O)O)NC(=O)C(C)(C)NC(=O)[C@@H](N)Cc1ccc(O)cc1)[C@@H](C)O)[C@@H](C)O)[C@@H](C)CC)C(=O)N[C@@H](C)C(=O)N[C@@H](CCC(N)=O)C(=O)NC(C)(C)C(=O)N[C@@H](CCC(=O)O)C(=O)N[C@@H](Cc1ccccc1)C(=O)N[C@H](C(=O)N[C@H](CCC(=O)O)C(=O)N[C@@](C)(Cc1ccc(O)cc1)C(=O)N[C@@H](CC(C)C)C(=O)N[C@H](C(=O)N[C@@H](CCC(=O)O)C(=O)NCC(=O)N[C@@H](CCCCNC(=O)COCCOCCNC(=O)COCCOCCNC(=O)CC[C@H](NC(=O)CCCCCCCCCCCCCCC)C(=O)O)C(=O)N1CCC[C@H]1C(=O)N[C@@H](CO)C(=O)N[C@@H](CO)C(=O)NCC(=O)N[C@@H](C)C(=O)N1CCC[C@H]1C(=O)N1CCC[C@H]1C(=O)N1CCC[C@H]1C(=O)N[C@@H](CO)C(N)=O)[C@@H](C)CC)[C@@H](C)CC)C(=O)O [Example 24] | – | – | 0.52 | 0.0361 | – | > 9950 | 92.4 ± 5.97 | EC50 (hGLP-1R; 0.1% bovine casein and 1.0% human serum albumin, 37° C., geometric mean, read-out: hGLP-1R EC50, nM (SEM, n)): 2.04 nM; EC50 (hGLP-1R; cAMP, incubated at 37° C., 0.1% bovine casein (no human serum albumin), geometric mean, read-out: hGLP-1R EC50, nM (SEM, n)): 0.0063 nM; EC50 (hGCGR; cAMP, incubated at 37° C., 0.1% bovine casein (no human serum albumin), geometric mean, read-out: hGCGR EC50, nM (SEM, n)): > 9950 nM |
| CC[C@H](C)[C@H](NC(=O)[C@H](CC(C)C)NC(=O)[C@](C)(Cc1ccc(O)cc1)NC(=O)[C@H](CCCCNC(=O)CCOCCOCCOCCNC(=O)CC[C@H](NC(=O)CCCCCCCCCOc1ccc(C(=O)O)cc1)C(=O)O)NC(=O)[C@@H](NC(=O)[C@H](Cc1ccccc1)NC(=O)[C@H](CCCN)NC(=O)C(C)(C)NC(=O)[C@H](CCC(N)=O)NC(=O)[C@H](C)NC(=O)[C@H](CCC(N)=O)NC(=O)[C@H](CCCN)NC(=O)[C@H](CC(=O)O)NC(=O)[C@H](CC(C)C)NC(=O)[C@](C)(CC(C)C)NC(=O)[C@@H](NC(=O)C(C)(C)NC(=O)[C@H](Cc1ccncc1)NC(=O)[C@H](CC(=O)O)NC(=O)[C@H](CO)NC(=O)[C@@H](NC(=O)[C@](C)(Cc1ccccc1F)NC(=O)[C@@H](NC(=O)CNC(=O)[C@H](CCC(=O)O)NC(=O)C(C)(C)NC(=O)[C@@H](N)Cc1ccc(O)cc1)[C@@H](C)O)[C@@H](C)O)[C@@H](C)CC)[C@@H](C)CC)C(=O)N[C@@H](CCCCNC(=O)CCOCCOCCOCCNC(=O)CC[C@H](NC(=O)CCCCCCCCCOc1ccc(C(=O)O)cc1)C(=O)O)C(=O)NCC(=O)NCC(=O)N1CCC[C@H]1C(=O)N[C@@H](CO)C(=O)N[C@@H](CO)C(=O)NCC(=O)N[C@@H](C)C(=O)N1CCC[C@H]1C(=O)N1CCC[C@H]1C(=O)N1CCC[C@H]1C(=O)N[C@@H](CO)C(N)=O [Example 462] | – | – | – | – | – | – | – | Emax (hGLP-1R; HEK293, read-out: hGLP-1R Emax, % ± SEM, cAMP, 37° C., 0.1% bovine casein, arithmetic mean): 113%; EC50 (hGLP-1R; hGLP-1R EC50, nM (SEM, n), cAMP, 37° C., 0.1% bovine casein (no human serum albumin), geometric mean): 0.189 nM; EC50 (hGCGR; hGCGR EC50, nM (SEM, n), cAMP, 37° C., 0.1% bovine casein (no human serum albumin), geometric mean): > 9950 nM; EC50 (hGCGR; hGCGR EC50, nM (SEM, n), cAMP, 37° C., 0.1% bovine casein and 1.0% human serum albumin, geometric mean (SEM, n)): > 9950 nM; Ki [1]: 0.125 nM; Ki [2]: 0.0102 nM; EC50 (hGIPR; hGIPR EC50, nM (SEM, n)): 0.0128 nM |
| CCCCCCCCCCCC(=O)N[C@@H](CCC(=O)NCCOCCOCC(=O)NCCOCCOCC(=O)NCCCC[C@H](NC(=O)[C@H](CCCN)NC(=O)[C@H](CC(=O)O)NC(=O)[C@H](CC(C)C)NC(=O)[C@](C)(CC(C)C)NC(=O)[C@@H](NC(=O)[C@H](CO)NC(=O)[C@H](CCCCNC(=O)COCCOCCNC(=O)COCCOCCNC(=O)CC[C@H](NC(=O)CCCCCCCCCCC)C(=O)O)NC(=O)[C@H](CC(=O)O)NC(=O)[C@H](CO)NC(=O)[C@@H](NC(=O)[C@](C)(Cc1ccccc1F)NC(=O)[C@@H](NC(=O)CNC(=O)[C@H](CCC(=O)O)NC(=O)C(C)(C)NC(=O)[C@@H](N)Cc1ccc(O)cc1)[C@@H](C)O)[C@@H](C)O)[C@@H](C)CC)C(=O)N[C@@H](C)C(=O)N[C@@H](CCC(N)=O)C(=O)NC(C)(C)C(=O)N[C@@H](CCC(=O)O)C(=O)N[C@@](C)(Cc1ccccc1)C(=O)N[C@H](C(=O)N[C@H](CCC(=O)O)C(=O)N[C@@](C)(Cc1ccc(O)cc1)C(=O)N[C@@H](CC(C)C)C(=O)N[C@H](C(=O)N[C@@H](CCC(=O)O)C(=O)NCC(=O)NCC(=O)N1CCC[C@H]1C(=O)N[C@@H](CO)C(=O)N[C@@H](CO)C(=O)NCC(=O)N[C@@H](C)C(=O)N1CCC[C@H]1C(=O)N1CCC[C@H]1C(=O)N1CCC[C@H]1C(=O)N[C@@H](CO)C(N)=O)[C@@H](C)CC)[C@@H](C)CC)C(=O)O [Example 293] (H-Y[Aib]EGT[αMePhe(2-F)]TSDK([AEEA-AEEA-γGlu-Lauroyl])SI[αMeL]LD[Orn]K([AEEA-AEEA-γGlu-Lauroyl])AQ[Aib]E[αMeF]I[dE][αMeY]LIEGGPSSGAPPPS-NH2) | 0.102 | > 9950 | 0.211 | 0.022 | 0.00915 | > 9950 | 96.6 | Emax (hGLP-1R; HEK293, 0.1% bovine casein and 1.0% human serum albumin, 37° C., read-out: hGLP-1R Emax, % ± SEM): 99.4% |
